# From US20240366612A1, “COMPOUNDS AND METHODS FOR MODULATING NUCLEIC ACID SPLICING” (REMIX THERAPEUTICS INC., priority 2021, published 2024)
# Key:
# Assay type in all cases: cell-based
# MYB mRNA = experiment: Splicing RT-qPCR assay, MYB canonical (CJ) and alternative (AJ) junction mRNA; conditions: Homo sapiens, A673 or K562 cells, 24 hours treatment; for IC50: decrease in CJ mRNA; for AC50: increase in AJ mRNA
# How it was run: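 Compound-treated A673 or K562 cells (11-point 3-fold dilution, top dose 10 uM final, DMSO ≤0.25%) were incubated for 24 h at 37° C. Lysates underwent one-step RT-qPCR for canonical and alternative-exon junction isoforms. Normalization used PPIA for A673 and GAPDH or GUSB for K562.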
# SMN2 CJ mRNA = experiment: Gene panel canonical junction qPCR assay, SMN2; conditions: Homo sapiens, larger gene panel, read-out: SMN2 IC50 (decrease in CJ mRNA levels)
# How it was run: (§1)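 A673 or K562 cells treated 24 h with 11-point 3-fold dilutions (top 10 µM, ≤0.25% DMSO) at 37 °C. Canonical exon-junction mRNA measured by probe-based RT-qPCR, normalized to GAPDH, GUSB or PPIA and DMSO (2^−ΔΔCt), converted to percent response over a fixed ΔCt window; IC50 from 4-parameter fit.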
# HTT CJ mRNA = experiment: Gene panel canonical junction qPCR assay, HTT; conditions: Homo sapiens, larger gene panel, read-out: HTT IC50 (decrease in CJ mRNA levels)
# How it was run: as §1
Structure (SMILES),IC50 (MYB mRNA) [µM],IC50 (SMN2 CJ mRNA) [µM],IC50 (HTT CJ mRNA) [µM],AC50 (MYB mRNA) [µM]
"Cc1cn2cc(-c3cc4ccn(C5CCN(C)CC5)c(=O)c4s3)cc(F)c2n1 [Compound 808, 2-(8-fluoro-2-methylimidazo[1,2-a]pyridin-6-yl)-6-(1-methylpiperidin-4-yl)thieno[2,3-c]pyridin-7(6H)-one]",0.1 to 1,< 0.1,0.1 to 1,0.1 to 1
Cc1cn2nc(-c3cc4ccn(C5CCN(C)CC5)c(=O)c4s3)cc(C)c2n1 [Compound 809],1 to 10,0.1 to 1,1 to 10,1 to 10

# Second part, led by results:
IC50 (MYB mRNA) [µM],IC50 (SMN2 CJ mRNA) [µM],IC50 (HTT CJ mRNA) [µM],Structure (SMILES),AC50 (MYB mRNA) [µM]
0.1 to 1,0.1 to 1,0.1 to 1,Cc1cn2nc(-c3nc4cnn(C5CCNCC5)c(=O)c4s3)cc(C)c2n1 [Compound 810],0.1 to 1
1 to 10,0.1 to 1,1 to 10,Cc1nc(-c2nc3cnn(C4CCNCC4)c(=O)c3s2)cc2cn(C)nc12 [Compound 811],1 to 10
> 10,> 10,> 10,"Cc1cn2cc(-c3nc4cnn(C5CCNCC5)c(=O)c4s3)nc(C)c2n1 [Compound 812, 2-(2,8-dimethylimidazo[1,2-a]pyrazin-6-yl)-6-(piperidin-4-yl)thiazolo[4,5-d]pyridazin-7(6H)-one]",> 10
